Test results: US5602161A, “Tetrazolylphenyl pivalate derivatives and medicinal composition containing the same as effective component” (Wakamoto Pharmaceutical Co., Ltd., priority 1994, dated 1997)
Like-named read-outs stand apart in the source and are kept apart here.

What was measured:
[1] = test system: endotoxin induced acute lung injury in mice; assay: Inhibitory effect on endotoxin induced acute lung injury in mice; assay type: in vivo, ICR mice; conditions: Mus musculus, oral 10 mg/Kg at 1.5 hr before and 4.5~5.0 hr after LPS (25 μg/site), BAL fluid at 19~20 hrs
Procedure: ICR mice (25~30 g, .male., n=7) were used.
The test compounds were suspended at 0.1% in 0.5% sodium carboxymethylcellulose-saline.
Oral administration of the test compounds were given at 10 mg/Kg at 1.5 hr before an intratracheal instillation of LPS (E.coli, 055:B5, Difico, 25 μg/site). After sodium pentobarbital anesthetized, LPS dissolved in sterile saline was instilled intratracheally via a ventral neck in the throat incisionusing with a 250 μl syringe attached to a 27-gauge needle.
The throat incisions were sutured with surgical threads, and PI-compound was administered with the same mannner as described above 4.5~5.0 hr after LPS instillation.
Up 19~20 hrs after LPS instillation, animals were euthanized by an i.p. pentobarbital overdose, each animal trachea was reexposed and the ventral neck region was small incised.
A 10 cm length of small-diameter (O.D=0.5 mm) polyethylene catheter inserted and held in place using surgical suture. The lung was then lavaged with a single 500 μl sterile saline using a 1 ml syringe by gently expanding the lung and then withdrawing the saline. The same operation was repeated 6 times, yielding a final volume of 3 ml bronchoalveolar lavage (BAL) fluid from each animal.
Evaluation of testing compounds were expressed as inhibitory percent of hemorrhage and leukocyte infiltration in the lung of each animals.
Estimation for hemorrhage:
Red blood cells were bursted with adding 50 μl KCN solution (0.33 %) per 1 ml of BAL fluid, and then the amount of blood in each BAL fluid samples were calculated from a hemoglobin standard curve.
Estimation of leukocyte infiltrations:
(§1) BAL fluid was diluted to 100 fold with a balanced electrolyte solution and KCN solution (0.33%) was added to the diluted BAL fluid for lysis of contaminating red blood cells.
Leukocyte number was determined from the average of the three times count using a particle counter.
The inhibitory effect of testing compounds were calculated from thefollowing equation:
Inhibitory percent=[1-(The average value of the test compound group)/(The
average value of the control group)]×100
The control animals were dosed orally with the same amount of the vehicle before and after intratracheal instillation of LPS and were operated with the same manner as the animals tested with the test compounds.

[2] = target: T1, human neutrophil elastase (Homo sapiens, UniProt P08246); assay: Inhibitory effect on elastase (human neutrophil), spectrophotometric assay with MeOSuc-Ala-Ala-Pro-Val-pNA; assay type: biochemical
T1 construct: using elastase from human neutrophil or human sputum; from tissue; host or cells: human neutrophil
T1 sequence (P08246 30-247 limits assumed): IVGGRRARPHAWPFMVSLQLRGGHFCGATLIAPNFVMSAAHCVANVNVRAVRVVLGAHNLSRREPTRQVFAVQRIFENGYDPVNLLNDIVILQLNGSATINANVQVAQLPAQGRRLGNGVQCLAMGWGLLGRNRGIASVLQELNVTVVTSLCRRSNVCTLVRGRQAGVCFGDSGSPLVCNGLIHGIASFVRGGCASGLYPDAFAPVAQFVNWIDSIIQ
Procedure: (§2) Namely, it is a spectrophotometric assay using the synthesized substrate, methoxysuccinyl-alanyl-alanyl- prolyl-valyl-p-nitroanilide(MeOSuc-Ala-Ala-Pro-Val-pNA, Cambridge research biochemical Co.) which has high specificity on neutrophil elastase.
(§3) 20 μl of a test compound of various concentrations and 20 μl of enzyme solution (13 unit/ml) were added to 400 μl of 0.1M sodium phosphate buffer (pH 8.0). The mixture was incubated at 37° C. for 5 min, and then 20 μl of the substrate was added to the mixture in a final volume of 460 μl. The reaction was conducted by incubating thus obtained mixture at 37° C. for 20 min. The reaction was stopped by the addition of 300 μl of 20% acetic acid into the reaction mixture, and then p-nitroanilide released was measured by the spectrophotometrically at 405 nm.
(§4) Inhibition percents of the test compounds were calculated by the following equation:
(§5) Inhibition %=[1-(OD 405 nm value of the testing sample-background)/(OD 405 nm value of the control-background)]×100

[3] = test system: pancreatic elastase induced acute lung injury in mice; assay: Inhibitory effect on pancreatic elastase induced acute lung injury in mice; assay type: in vivo, ICR mice; conditions: oral 10 mg/Kg at 3.5 hr before and 4.5~5.0 hr after P. elastase (5 μg/site); BAL fluid at 20 hrs
Procedure: ICR mice (25~30 g, .male., n=7~8) were used.
The compound to be evaluated was suspended in 0.5% sodium carboxymethylcellulose-saline.
Oral administration of the test compound was given at 10 mg/Kg at 3. 5 hr before an intratacheal instillation of P. elastase (5 μg/site). After sodium pentobarbital anesthetized, sterile saline containing P. elastase was instilled intratracheally via ventral neck in the throat incisions using a 250 μl syringe attached to a 27-gauge needle.
The throat incisions were closed with surgical suture, and test compounds were administered with the same manner as described above at 4.5~5.0hr after an intratracheal instillation of P. elastase.
At 20 hrs after an intratracheal instillation of P. elastase, animalz were euthanized by an i.p. pentobarbital overdose, each animal trachea was reexposed and the ventral nech region was small incised. A 10 cm length of small-diameter (O.D=0.5 mm) polyethylene catheter inserted and held in place using surgical suture. The lung were then lavaged with 500 μl sterile saline using a 1 ml syringe by gently expanding the lung and then withdrawing the saline.
The same operation was repeated 6 times, yielding in a final volume of 3 ml bronchoalveolar lavage (BAL) fluid from each animal.
The test compounds were evaluated as a inhabitory percent of hemorrhage and leukocyte number in the BAL fluid from each animal.
Operation for hemorrhage and leukocyte number assay;
Red blood cells were bursted with adding 50 μl KCN solution (0.33%) per 1 ml BAL fluid. The amount of blood in each BAL fluid sample was calculated from a hemoglobin standard curve.
as §1
Leukocyte number was determined by the average of the three times count using a particle counter.
Inhibitory effects of the test compounds on hemorrhage and leukocyte infiltration were calculated from the following equation: Inhibitory percent=[1-(The average value of test compound
group)/(The average value of the control group)]×100
The control animals were dosed orally with the same amount of vehicle before and after intratracheal instillation of P. elastase, and it were treated with the same manner as the test compound group.

[4] = Cytotoxicity test (MTT, three days); assay type: cell-based; conditions: mouse, l1210 cells, read-out: Survival rate; for viability at 72 h, 1 µM: final concentration 1 μM; for viability at 72 h, 5 µM: final concentration 5 μM; for viability at 72 h, 10 µM: final concentration 10 μM
Procedure: L1210 (lymphocytic leukemia, mouse) cells in a logarithmic growth phase were collected and washed twice with HBSS (Hanks' balanced salt solution). The L1210 cells were resuspended at 5.0×10^4 cells/ml in RPMI 1640 medium containing 10% heat-inactivated fetal bovine serum. The cell suspension was dispensed in 100 μl aliquots into 96 well multi-plate. Each of compounds to be tested was dissolved in dimethylsulfoxide at a concentration of 10 mM. The solutions were stepwise diluted with RPMI 1640 solution containing 10% heat-inactivated fetal bovine serum. Each of the diluted samples was dispensed in an amount of 10 μl well in the 96 well multi-plate containing L1210 cells and incubated for three days at 37° C. in humidified 5% CO2 -air mixture. To each of the wells, 10 μl of MTT (3-(4,5-dimethylthiazol-2-yl)-2,5-diphenyltetrazolium bromide)(5 mg/ml in phosphate buffer free of Ca^2+ and Mg^2+) was added. Cultivation was continued for additional five hours at 37° C. in humidified 5% CO2 -air mixture. To each of the wells, 100 μl of 20% SDS (sodium dodecyl sulfate) in 0.01N HCl was added to solubilize the MTT formazan.
Absorbance was measured at 630 nm as a reference wavelength and 570 nm as a measuring wavelength using Corona Electric MTP22 Microplate Photometer. The measurement was conducted three times for each of the samples to obtain an average value and a standard deviation. Survival rate was calculated by the following equation:
Survival rate (5)=[(absorbance of test sample)/(absobance of […]

[5] = target: T2, human sputum elastase (Homo sapiens, UniProt P08246); assay: Inhibitory effect on elastase (human sputum), spectrophotometric assay with MeOSuc-Ala-Ala-Pro-Val-pNA; assay type: biochemical
T2 sequence (P08246 30-247 limits assumed): T1 sequence (P08246 30-247 limits assumed)
Procedure: as §2, §3, §4, §5

[6] = test system: endotoxin-induced lung disorders; conditions: The Course of Medical Science, 1992, 160, No. 4, pp. 257-258; cited from earlier work
[7] = Leukocyte, read-out: Inhibitory percent of leukocyte infiltration
[8] = read-out: Inhibitory percent of hemorrhage
[9] = N: human neutrophil elastase, pH 8.0, 37° C., read-out: IC50
[10] = S: human sputum elastase, pH 8.0, 37° C., read-out: IC50

| Compound | IC50 [2, 9] [µM] | IC50 [5, 10] [µM] | inhibition in vivo at 10 mg/kg [1, 7] [%] | inhibition in vivo at 10 mg/kg [1, 8] [%] | IC50 [2] [µM] | Inhibitory percent of hemorrhage [3] [%] | Inhibitory percent of leukocyte infiltration [3] [%] | viability at 72 h, 1 µM [4] [%] | viability at 72 h, 5 µM [4] [%] | viability at 72 h, 10 µM [4] [%] | effect of inhibiting endotoxin-induced lung disorders (in words) [6] | IC50 [5] [µM] |
| --- | --- | --- | --- | --- | --- | --- | --- | --- | --- | --- | --- | --- |
| CC(C)(C)C(=O)Oc1ccc(-c2nnn(CCOC(=O)c3ccc(NC(=N)N)cc3)n2)cc1 [Example 94, 4-[2-[2-(4-Guanidinobenzoyloxy)ethyl]tetrazol-5-yl]phenyl pivalate Acetate] |  |  | 51.8 | 36.6 | 0.096 |  |  |  |  |  |  |  |
| CN(C)c1ccc(Cn2nnc(-c3ccc(OC(=O)C(C)(C)C)cc3)n2)cc1 [Example 16, 4-[2-[4-(Dimethylamino)benzyl]tetrazol-5-yl]phenyl pivalate] | 0.03 | 0.15 | 88.2 | 84.9 |  | 44.0 | 49.0 | 94.2 | 103 | 104 |  |  |
| CC(C)(C)C(=O)Oc1ccc(S(=O)(=O)Nc2ccccc2C(=O)NCC(=O)O)cc1 [ONO-5046] |  |  |  |  |  |  |  |  |  |  | shows an effect of inhibiting endotoxin-induced lung disorders |  |
| CC(=O)O.CC(C)(C)C(=O)Oc1ccc(-c2nnn(CCNC(=O)c3ccc(NC(=N)N)cc3)n2)cc1 [Example 95, 4-[2-[2-(4-Guanidinobenzoylamino)ethyl]tetrazol-5-yl]phenyl pivalate Acetate] |  |  | 79.6 | 62.3 |  | 15.2 | 30.2 | 103 | 109 | 107 |  | 0.25 |
| CC(C)c1ccc(Cn2nnc(-c3ccc(OC(=O)C(C)(C)C)cc3)n2)cc1 [Example 19, 4-[2-(4-Isopropylbenzyl)tetrazol-5-yl]phenyl pivalate] | 0.042 | 0.51 | 65.6 | 33.8 |  | 76.8 | 14.1 |  |  |  |  |  |
| CN(C)c1ccc(Cn2nnc(-c3ccc(OC(=O)C(C)(C)C)c(N(C)C)c3)n2)cc1 [Example 7, 2-Dimethylamino-4-[2-[4-(dimethylamino)benzyl]tetrazol-5-yl]phenyl pivalate] |  | 0.54 | 82.1 | 88.5 |  | 23.6 | 26.1 | 97 | 96.1 | 88.3 |  |  |

More lines, main results first:

| IC50 [2, 9] [µM] | IC50 [5, 10] [µM] | Compound | inhibition in vivo at 10 mg/kg [1, 7] [%] | inhibition in vivo at 10 mg/kg [1, 8] [%] | IC50 [2] [µM] | Inhibitory percent of hemorrhage [3] [%] | Inhibitory percent of leukocyte infiltration [3] [%] | viability at 72 h, 1 µM [4] [%] | viability at 72 h, 5 µM [4] [%] | viability at 72 h, 10 µM [4] [%] | effect of inhibiting endotoxin-induced lung disorders (in words) [6] | IC50 [5] [µM] |
| --- | --- | --- | --- | --- | --- | --- | --- | --- | --- | --- | --- | --- |
| 0.019 | 0.022 | COc1ccc(COCCCCn2nnc(-c3ccc(OC(=O)C(C)(C)C)cc3)n2)cc1 [Example 42, 4-[2-[4-(4-Methoxybenzyloxy)butyl]tetrazol-5-yl]phenyl pivalate] | 64.1 | 39.4 |  |  |  |  |  |  |  |  |
|  | 0.14 | CN(C)Cc1ccc(Cn2nnc(-c3ccc(OC(=O)C(C)(C)C)cc3)n2)cc1 [Example 47, 4-[2-[4-(Dimethylaminomethyl)benzyl]tetrazol-5-yl]phenyl pivalate] | 61.5 | 48.6 |  |  |  |  |  |  |  |  |
|  | 0.014 | CC(C)(C)C(=O)Oc1ccc(-c2nnn(Cc3ccncc3)n2)cc1 [Example 35, 4-[2-(4-Pyridylmethyl)tetrazol-5-yl]phenyl pivalate] |  |  |  | 71.5 | 45.1 | 95.2 | 110 | 99.1 |  |  |
|  | 0.04 | CC(C)(C)C(=O)Oc1ccc(-c2nnn(Cc3ccc(C(=O)N4CCC[C@H]4C(=O)O)cc3)n2)cc1 [Example 59, N-[4-[5-(4-pivaloyloxyphenyl)tetrazol-2-ylmethyl]benzoyl]-L-Proline] | 58.8 | 81.5 |  |  |  |  |  |  |  |  |
|  | 0.038 | CC(C)(C)C(=O)Oc1ccc(-c2nnn(C(C(=O)OCc3ccccc3)c3ccccc3)n2)cc1 (stereo not drawn) [Example 51, 4-[2-[α-(Benzyloxycarbonyl)benzyl)tetrazol-5-yl]phenyl pivalate] | 20.5 | 57 |  |  |  |  |  |  |  |  |
| 0.3 |  | CC(C)(C)C(=O)Oc1ccc(-c2nnn(Cc3ccccc3C(=O)NCC(=O)O)n2)cc1 [Example 63, N-[2-[5-(4-Pivaloyloxyphenyl)tetrazol-2-ylmethyl]benzoyl]glycine] |  |  |  |  |  | 105 | 103 | 100 |  |  |
